For data set [1], the system named is R1 mouse embryonic stem (mES) cell line. The experiment in a line: Mouse embryonic stem cell (R1) neural differentiation, CTIP2 and doublecortin immunofluorescence. The data set is classed as cell-based. As to conditions: 500 nM during neural differentiation for 21 days, vs vehicle. As to the method:
R1 mouse embryonic stem (mES) cell line was grown on gelatin 0.1%, in Knockout DMEM supplemented with 20% Knockout Serum Replacement, 1000 U ml-1 of LIF, 0.1 mM of non-essential amino acids, 2 mM ultraglutamine, 50 U ml-1 of penicillin and streptomycin and 0.1 mM of 2-mercaptoethanol. Cells were then differentiated at low density in Defined Default Medium (DDM) containing DMEM/F12 + GlutaMAX supplemented with N2 supplement (1×), 5 mM of Hepes Buffer, 0.1 mM of non-essential amino acids, 1 mM of sodium pyruvate, 2.5 mg ml-1 of AlbuMax-I, 30 mM of D-Glucose, 0.1 mM of non-essential amino acids, 0.1 mM of 2-mercaptoethanol, 50 U ml-1 of penicillin and streptomycin for 12 days. […]
Free floating coronal brain slices (30 μm) were processed as previously described. […] The lateral SVZ zone was delineated by using DAPI-counterstained cell nuclei, and analyses were performed in the upper dorsal tier, in which positively-labelled cells and immunoreactivity were quantified not beyond 100 μm of the SVZ. Confocal fluorescence images were acquired by using LAS-X software (Wetzlar, Germany) and SP8 microscope with 2 passes by Kalman filter, a 1024X1024 collection box, and pinhole AU 1. […] Cells were quantified within a 20 × 20 μm counting frame, which randomly sampled within a 122.8 × 68.9 μm counting grid. […]

Data set [2] can be described thus: Microsomal metabolic stability. As to the method: The final incubation volume was 25 μL. […] The reactions were stopped by the addition of 50 μL methanol containing internal standard at the appropriate time points. The incubation plates were centrifuged at 2500 rpm for 20 min at 4 °C to precipitate the protein. Following protein precipitation, the sample supernatants were analyzed using LC-MS/MS. From a plot of ln peak area ratio (compound peak area/internal standard peak area) against time, the gradient of the line was determined. Subsequently, half-life and intrinsic clearance was calculated using the equations below: Elimination rate constant (k) = (− gradient).

The subject of data set [3] is 3-NP model of striatal neurodegeneration. Put plainly: 3-Nitropropionic acid (3-NP) model of striatal neurodegeneration. Type of data set: in vivo, C57BL/6 N male mice. As to conditions: 10 mg/kg oral gavage every 24 h, sesame oil. As to the method: Supplementary file 40035_2019_148_MOESM6_ESM.pdf: Additional file 6: 3-Nitroproprionic acid model of striatal neurodegeneration. 16-week- old C57BL/6 N male mice (Harlan Ibérica, Barcelona, Spain) were subjected to seven intraperitoneal (i.p.) injections of 50 mg/kg 3-NP (one injection each every 12 h prepared in phosphate-buffered saline (PBS)]. 3-NP-treated animals and their respective non-lesioned controls (injected with PBS) were used for pharmacological studies with VCE-003.2. Treatments consisted of oral gavage every 24 h with VCE-003.2 at a dose of 10 mg/kg using sesame oil as vehicle. 12 h after the last injection of 3-NP motor activity, hindlimb clasping and kyphosis were evaluated as previously described. Animals were euthanized at the indicated time after huntingtin-AAV infection or 12 h after the last injection of 3NP and their brains removed. Statistical analysis: One-way ANOVA followed by the Tuckey’s post hoc test was used to determine the statistical significance. All the in vivo data were expressed as mean ± SEM. […]

The source of these data is article PMC6407204, “Oral administration of the cannabigerol derivative VCE-003.2 promotes subventricular zone neurogenesis and protects against mutant huntingtin-induced neurodegeneration” (Translational Neurodegeneration, 2019).

As for `CCCCCC1=C(NCC)C(=O)C(CC=C(C)CCC=C(C)C)=C(O)C1=O` [VCE-003.2, 2-(3,7-dimethyl-octa-2,6-dienyl)-6-ethylamino-3-hydroxy-5-pentyl-(1,4) benzoquinone], in data set [1], the doublecortin immunoreactivity result is given as “increased” and the “number of CTIP2-positive cells” value was “increased the number of CTIP2-positive cells”. Further, the “intrinsic clearance in vitro (in words)” value in data set [2] (human liver microsomes) is given as “rapid intrinsic clearance”. Moreover, in data set [2] (human, microsomes, pH 7.4), the half-life came to 10.6 min and the microsomal CLint stood at 131 µL/min/mg. Moreover, the “neuroprotection and anti-inflammatory effect in 3-NP model” value in data set [3] was “neuroprotective and anti-inflammatory”.

For orientation: half-life means how long it takes for the measured level to halve. A lower half-life goes with rapid decline. By microsomal CLint is commonly meant the capacity of the preparation to metabolise the compound, expressed as a volume cleared per time.
